Where a SMILES comes first, the peptide text is derived from it. The star is where a group is joined. X1 = CC1(C)CC[C@]2(C(=O)*)CC[C@]3(C)C(=CCC4[C@@]5(C)CC[C@H](O)C(C)(C)C5CC[C@]43C)C2C1
What was measured:
Prostaglandin E2 (PGE2) = assay: Extracellular PGE2 from LPS-challenged human neutrophils; type: cell-based; settings: for % activity PGE2 expression against LPS control: ↓ = inhibition
Protocol: (§1) Experimental observations were made in human neutrophil that were challenged with LPS. […] Rolipram at 100 μg/ml dose level was used as a standard drug to observe the authenticity and reproducibility of the experimental design.
The Oleanoyl peptide was also screened for NO and PGE2 expression.

[1] = DPPH free radical scavenging assay
Protocol: The DPPH assay is often used to evaluate the ability of antioxidants to scavenge free radicals which are known to be a major factor in biological damages caused by oxidative stress. This assay is known to give reliable information concerning the antioxidant ability of the tested compounds. The assay is based on the color change of the stable free radical DPPH from purple to yellow as the radical is quenched by the antioxidant.
The assay mixture tubes containing 1.5 ml of 0.1 mM DPPH methanolic solution and varying concentrations of the sample in a total volume of 3 ml were incubated at 37° C. for 30 minutes in a shaking water bath. The reduction in absorbance which is directly proportional to the radical scavenging is measured spectrophotometrically at 517 nm. […] The percentage of scavenging is calculated as follows, % scavenging=[(C−T)/C]×100 Where C=absorbance in the absence of inhibitor
T=absorbance in the presence of inhibitor

Interleukin-6 (IL-6) = assay: Extracellular IL-6 from LPS-challenged human neutrophils; type: cell-based; settings: for % activity IL-6 expression against LPS control: ↓ = inhibition
Protocol: as §1

[2] = tested on: B16F1 mouse melanoma cells; assay: Melanin inhibition in α-MSH induced melanoma cells; type: cell-based
Protocol: B16F1 mouse melanoma cells were seeded in a 6 well microtiter plate at a seeding density of 5000 cells per well in 2 ml DMEM medium per well. After 24 hours of incubation in a CO2 incubator, melanin production is induced by 0.1 nM ∝-MSH by replacing the medium with medium containing ∝-MSH. The cells were then treated with varying concentrations of sample (composition containing oleanoyl peptide and stilbenes/licorice extract/THC) over a period of 9 days with renewal of ∝-MSH containing medium and sample at regular intervals of 3 days. Control wells were maintained without sample treatment and only with the vehicle used for sample preparation. After the incubation period, the medium was removed and the cells were scraped and washed in PBS. Thereafter, melanin was extracted by 1N NaOH in boiling water bath for 5 minutes. The absorbance of the melanin extract was read at 405 nm in a microplate reader. The inhibitory effect of the sample is calculated based on the decrease of melanin formation.
T=absorbance due to melanin in the presence of inhibitor

LTB4 = LTB4 inhibition (same procedure as TNF α); type: cell-based, human; settings: at 0.625 μg/ml
Excerpt: The above procedure is also followed for determining LTB4 inhibition by Oleanoyl peptide. From the results tabulated in table 1, it is clear that Oleanoyl peptide is a better TNF α and LTB4 inhibitor.

For `C[C@@H](O)[C@H](NC(=O)[C@H](CCCCN)NC(=O)[C@]12CCC(C)(C)CC1C1=CCC3[C@@]4(C)CC[C@H](O)C(C)(C)C4CC[C@@]3(C)[C@]1(C)CC2)C(=O)N[C@H](C(=O)N[C@@H](CCCCN)C(=O)N[C@@H](CO)C(=O)O)[C@@H](C)O` (stereo partly drawn) [Oleanoyl peptide, Oleanoyl-Lys-Thr-Thr-Lys-Ser-OH] (X1-KTTKS-OH), the “Concentration of PGE2 produced (pg/ml) Mean ± S.E.” value (from here on “Concentration of PGE2 produced”) (Prostaglandin E2 (PGE2); test sample 0.125 μg/ml) was 573.82 ± 6.08 pg/mL, the “Concentration of PGE2 produced” value (Prostaglandin E2 (PGE2); test sample 0.25 μg/ml) was 501.64 ± 7.56 pg/mL and the “Concentration of PGE2 produced” value (Prostaglandin E2 (PGE2); test sample 0.5 μg/ml) was 468.31 ± 6.41 pg/mL. The “Concentration of PGE2 produced” value (Prostaglandin E2 (PGE2); test sample 1 μg/ml) was 419.53 ± 5.07 pg/mL, the “Concentration of PGE2 produced” value (Prostaglandin E2 (PGE2); test sample 2 μg/ml) was 384.44 ± 8.02 pg/mL and the “Concentration of PGE2 produced” value (Prostaglandin E2 (PGE2); test sample 4 μg/ml) was 395.81 ± 4.68 pg/mL. The “% activity PGE2 expression against LPS control” value (“% activity PGE2 expression” below) (Prostaglandin E2 (PGE2); test sample 0.125 μg/ml) was 25.37↓ %, the “% activity PGE2 expression” value (Prostaglandin E2 (PGE2); test sample 0.25 μg/ml) was 34.76↓ % and the “% activity PGE2 expression” value (Prostaglandin E2 (PGE2); test sample 0.5 μg/ml) was 39.09↓ %. The “% activity PGE2 expression” value (Prostaglandin E2 (PGE2); test sample 1 μg/ml) was 45.44↓ %, the “% activity PGE2 expression” value (Prostaglandin E2 (PGE2); test sample 2 μg/ml) was 50.00% and the “% activity PGE2 expression” value (Prostaglandin E2 (PGE2); test sample 2 μg/ml, listed as OP) was 50.00↓ %. The “% activity PGE2 expression” value (Prostaglandin E2 (PGE2); test sample 4 μg/ml) was 48.52↓ %, the “Anti-oxidant activity by DPPH Method, % inhibition” value ([1]; at 300 μg/ml) was 29% inhibition at 300 and the “Anti-oxidant activity by DPPH Method” value ([1]; result in words) was “shows DPPH scavenging activity”. The “Concentration of IL-6 produced (pg/ml) Mean ± S.E.” value (from here on “Concentration of IL-6 produced”) (Interleukin-6 (IL-6); test sample 0.125 μg/ml) was 130.38 ± 2.11 pg/mL, the “Concentration of IL-6 produced” value (Interleukin-6 (IL-6); test sample 0.25 μg/ml) was 123.92 ± 2.09 pg/mL and the “Concentration of IL-6 produced” value (Interleukin-6 (IL-6); test sample 0.5 μg/ml) was 117.23 ± 2.84 pg/mL. For the same molecule, the “Concentration of IL-6 produced” value (Interleukin-6 (IL-6); test sample 1 μg/ml) was 106.81 ± 3.79 pg/mL, the “Concentration of IL-6 produced” value (Interleukin-6 (IL-6); test sample 2 μg/ml) was 104.75 ± 5.31 pg/mL and the “Concentration of IL-6 produced” value (Interleukin-6 (IL-6); test sample 4 μg/ml) was 101.11 ± 2.87 pg/mL. The “% activity IL-6 expression against LPS control” value (“% activity IL-6 expression” below) (Interleukin-6 (IL-6); test sample 0.125 μg/ml) was 8.33↓ %, the “% activity IL-6 expression” value (Interleukin-6 (IL-6); test sample 0.25 μg/ml) was 12.87↓ % and the “% activity IL-6 expression” value (Interleukin-6 (IL-6); test sample 0.5 μg/ml) was 17.58↓ %. The “% activity IL-6 expression” value (Interleukin-6 (IL-6); test sample 1 μg/ml) was 24.90↓ %, the “% activity IL-6 expression” value (Interleukin-6 (IL-6); test sample 2 μg/ml) was 26.35↓ % and the “% activity IL-6 expression” value (Interleukin-6 (IL-6); test sample 4 μg/ml) was 28.03%. For the same molecule, the “% activity IL-6 expression” value (Interleukin-6 (IL-6); test sample 4 μg/ml, listed as OP) was 28.91↓ %, the reduction in melanin ([2]; result in words, FIG. 15) was “no significant reduction in melanin” and the “Melanin inhibition IC50 (μg/ml), Individual active” value ([2]; α-MSH induced, 9 days) was “Not significant”. For the same molecule, the “LTB4 inhibition, % inhibition” value (LTB4) was 26%.
